Experimental data as given in US20220184008A1, “MODULATORS OF INTRACELLULAR CHLORIDE CONCENTRATION” (FONDAZIONE ISTITUTO ITALIANO DI TECNOLOGIA, priority 2019, published 2022).

What was measured:
NKCC1 [1] = assay: Calcium kinetic assay in primary cultures of immature hippocampal neurons; assay type: cell-based; conditions: 10 μM, immature neurons 3 DIV
Protocol: FIG. 2: In vitro testing of the NKCC1 inhibitors in a calcium kinetic assay. a) Example traces of fluorescence levels upon application of GABA (100 μM) and KCl (90 mM) used to trigger calcium influx in primary neuronal cultures treated after 3 days in culture (3 DIV) with vehicle, bumetanide, furosemide and compounds 3.8, 3.13 and 3.17 in the calcium kinetic assay. b) Quantification of the average fluorescence increase upon GABA application normalized to the increase upon KCl application in neurons treated with bumetanide, furosemide and 3 exemplary compounds (3.8, 3.13, 3.17) (10 μM, 100 μM). Data represents mean±sem from 5 independent experiments, and they are presented as % of the control. *P<0.05, **P<0.01, ***P<0.001 Kruskal-Wallis Anova (Dunn's Post hoc Test).
Next, the compounds of the invention were tested for their ability to revert the depolarizing GABAergic signaling in immature neurons. This effect was indirectly measured as calcium influx into the cells with an in vitro calcium kinetic assay in primary cultures of hippocampal neurons. The calcium kinetic assay exploits the physiological, endogenous, high expression of NKCC1 in immature neurons, which causes depolarizing actions of GABA and can activate voltage-gated Ca^2+ channels. Thus, in immature neurons, a compound that blocks NKCC1 is predicted to inhibit Ca^2+ responses upon GABA application. Immature neurons were cultured for 3 days in vitro (3 DIV) and loaded for 15 min with a calcium-sensitive dye (Fluo4). Then, the neurons were treated with bumetanide and furosemide (as positive controls) or with each of the selected compounds for 15 min. As a functional readout, the fluorescence level was monitored in these cultures before and after application of GABA (100 μM, for 20 sec). To test for neuronal viability at the end of the experiment, KCl was applied (90 mM, for 40 sec), which strongly depolarizes neurons, causing high activation of voltage-gated Ca^2+ channels in live cells. To quantify how bumetanide, furosemide, and selected compounds influenced NKCC1 inhibition, the fluorescence values were normalized upon GABA application to the fluorescence levels upon KCl application in treated neurons.

NKCC1 [2] = target: T1, NKCC1 (Homo sapiens, UniProt P55011); assay: Chloride kinetic assay (Cl-sensitive YFP) in NKCC1-transfected HEK293 cells; assay type: cell-based; conditions: 10 μM, NKCC1-transfected HEK293; for inhibition at 10 µM: read-out: NKCC1 Inhibition % 10 μM HEK Chloride YFP assay
T1 construct: expressed in transfected cells; host or cells: HEK293
T1 sequence (P55011 1-1212): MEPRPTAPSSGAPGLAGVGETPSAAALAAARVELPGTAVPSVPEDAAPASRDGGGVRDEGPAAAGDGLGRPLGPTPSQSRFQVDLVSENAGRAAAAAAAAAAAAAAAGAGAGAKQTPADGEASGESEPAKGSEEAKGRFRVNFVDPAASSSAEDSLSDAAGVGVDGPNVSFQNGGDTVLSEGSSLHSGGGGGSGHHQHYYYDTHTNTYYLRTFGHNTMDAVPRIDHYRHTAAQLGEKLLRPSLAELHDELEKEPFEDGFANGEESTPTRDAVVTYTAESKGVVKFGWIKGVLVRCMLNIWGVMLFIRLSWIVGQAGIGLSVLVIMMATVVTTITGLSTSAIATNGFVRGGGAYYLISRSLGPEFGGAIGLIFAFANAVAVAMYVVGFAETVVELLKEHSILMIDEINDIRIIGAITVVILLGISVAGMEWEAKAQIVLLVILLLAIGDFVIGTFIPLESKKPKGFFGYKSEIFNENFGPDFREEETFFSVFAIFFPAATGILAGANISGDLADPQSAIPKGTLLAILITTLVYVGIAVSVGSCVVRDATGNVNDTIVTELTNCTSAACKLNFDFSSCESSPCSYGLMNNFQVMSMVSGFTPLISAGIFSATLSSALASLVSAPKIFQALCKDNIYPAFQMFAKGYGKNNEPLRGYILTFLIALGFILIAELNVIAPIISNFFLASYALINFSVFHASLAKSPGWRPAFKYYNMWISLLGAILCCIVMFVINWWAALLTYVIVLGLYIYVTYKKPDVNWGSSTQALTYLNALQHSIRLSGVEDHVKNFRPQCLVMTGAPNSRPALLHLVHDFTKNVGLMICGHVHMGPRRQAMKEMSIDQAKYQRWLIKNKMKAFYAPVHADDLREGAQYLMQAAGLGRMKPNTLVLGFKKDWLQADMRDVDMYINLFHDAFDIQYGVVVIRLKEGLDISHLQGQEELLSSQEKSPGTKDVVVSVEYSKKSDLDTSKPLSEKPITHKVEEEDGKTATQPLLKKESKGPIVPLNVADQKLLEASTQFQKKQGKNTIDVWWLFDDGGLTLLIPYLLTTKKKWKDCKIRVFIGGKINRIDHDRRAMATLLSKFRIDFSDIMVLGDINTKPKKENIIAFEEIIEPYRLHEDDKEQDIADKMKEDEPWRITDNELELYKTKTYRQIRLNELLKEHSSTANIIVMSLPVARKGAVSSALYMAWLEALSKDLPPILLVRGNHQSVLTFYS
Protocol: FIG. 1: In vitro testing of the NKCC1 inhibitors in the chloride kinetic assay a) Example traces obtained in the chloride kinetic assay on HEK cells transfected with the YFP (mock) or with YFP and NKCC1. The arrow indicates the addition of NaCl (final concentration 74 mM) used to initiate the flux assay. b) Quantification of the effect of bumetanide (10 μM and 100 μM) or furosemide (10 μM and 100 μM) in the chloride kinetic assay on mock or NKCC1-transfected HEK293 cells. Data represents mean±sem from 5 independent experiments. c) Quantification of the effect of bumetanide and furosemide and 2 selected compounds (3.8, 3.17) in the chloride kinetic assay on NKCC1-transfected HEK293 cells. Data represents mean±sem from 5 independent experiments, and they are represented as % of the controls. *P<0.05, **P<0.01, ***P<0.001 Kruskal-Wallis Anova (Dunn's Post hoc Test); ###P<0.001 two-tailed unpaired Student t-test.
To screen in vitro the compounds efficiency in blocking NKCC1, a functional NKCC1 transporter assay was performed by measuring variation of Cl^− ion concentration in the cell through a Cl^− sensitive membrane-tagged yellow fluorescent protein (mbYFPQS, Addgene). mbYFPQS fluorescence is inversely dependent on the concentration of Cl^− inside the cell thus allowing an indirect estimation of the Cl^− transporter activity. In particular, HEK293 cells were transfected with NKCC1 or mock construct (control) together with the Cl^− sensitive YFP. After 2 DIV, the cells were treated with bumetanide and furosemide (as positive controls) or with each of the tested compounds of the invention in a Cl^− free medium. After 30 min, the inhibitory activity of the compounds was tested by monitoring fluorescence upon application of NaCl (FIG. 1a). Transported by NKCC1, Cl binds the YFP, leading to a fluorescence decrease. […] With the Cl kinetic assay, the NKCC1 inhibitory activity of the selected compounds was tested (FIG. 1c).

Structure (SMILES)	NKCC1 Inhibition % 10 μM Neurons Calcium kinetic assay (NKCC1 [1]; Table 1)	NKCC1 Inhibition % 10 μM Neurons Calcium kinetic assay (NKCC1 [1]; Table 2)	inhibition at 10 µM (NKCC1 [2]; Table 1)	NKCC1 Inhibition % 10 μM HEK Chloride YFP assay (NKCC1 [2]; Table 1)	NKCC1 Inhibition % 10 μM HEK Chloride YFP assay (NKCC1 [2]; Table 2)
O=C(O)c1ccc(NCCCCCCCC(F)(F)F)c(S(=O)(=O)N2CCOCC2)c1 [Compound 5.7, 3-morpholinosulfonyl-4-(8,8,8-trifluorooctylamino) benzoic acid]	24%	24%	13%	–	–
NS(=O)(=O)c1cc(C(=O)O)c(O)cc1NCCCCCCCC(F)(F)F [Compound 7.4, 2-hydroxy-5-sulfamoyl-4-(8,8,8-trifluorooctylamino) benzoic acid]	24%	–	30%	–	–
COCCCCCCNc1ccc(C(=O)O)cc1S(=O)(=O)N(C)C [Compound 3.20, 3-(dimethylsulfamoyl)-4-(6-methoxyhexylamino)benzoic acid]	20%	20%	–	Inactive	Inactive
CCOc1cc(NCCCCCCCC(F)(F)F)c(S(=O)(=O)N(C)C)cc1C(=O)O [Compound 12.9]	12.2%	–	–	–	–
CN(C)S(=O)(=O)c1cc(C#N)ccc1NCCCCCCCC(F)(F)F [Compound 6.3, 5-cyano-N,N-dimethyl-2-(8,8,8-trifluorooctylamino) benzenesulfonamide]	–	–	20%	–	–
O=C(O)c1ccc(NCCCCCCCC(F)(F)F)c(S(=O)(=O)N2CCCCC2)c1 [Compound 5.6, 3-(1-piperidylsulfonyl)-4-(8,8,8-trifluorooctylamino) benzoic acid]	55%	55%	–	Inactive	Inactive
COCCNc1ccc(C(=O)O)cc1S(=O)(=O)N(C)C [Compound 3.18, 3-(dimethylsulfamoyl)-4-(2-methoxyethylamino)benzoic acid]	Inactive	Inactive	13%	–	–
O=C(O)c1ccc(NCCCCCCCC(F)(F)F)c(S(=O)(=O)NC2CCCC2)c1 [Compound 3.21, 3-(cyclopentylsulfamoyl)-4-(8,8,8-trifluorooctylamino) benzoic acid]	51%	51%	18%	–	–
CN(C)S(=O)(=O)c1cc(C(=O)O)ccc1NCCCCCC(F)(F)F [Compound 3.16, 3-(dimethylsulfamoyl)-4-(6,6,6-trifluorohexylamino) benzoic acid]	Inactive	Inactive	17%	–	–
COc1cc(NCCCCCCCC(F)(F)F)c(S(=O)(=O)N(C)C)cc1C(=O)O [Compound 13.1, 5-(N,N-dimethylsulfamoyl)-2-methoxy-4-((8,8,8-trifluorooctyl)amino)benzoic acid]	14.2%	–	–	–	–
CN(C)S(=O)(=O)c1cc(C(=O)O)ccc1N1CCN(CCCCC(F)(F)F)CC1 [Compound 9.1, 3-(dimethylsulfamoyl)-4-[4-(5,5,5 trifluoropentyl)piperazin-1-yl] benzoic acid]	–	–	3%	–	–
CN(C)S(=O)(=O)c1cc(C(=O)O)c(OC2CCCC2)cc1NCCCCCCCC(F)(F)F [Compound 12.10]	26.6%	–	–	–	–
CN(C)S(=O)(=O)c1cc(C(=O)O)ccc1NCCCC(F)(F)F [Compound 3.15, 3-(dimethylsulfamoyl)-4-(4,4,4 trifluorobutylamino) benzoic acid]	Inactive	Inactive	11%	–	–
O=C(O)c1ccc(NCCCCCCCC(F)(F)F)c(S(=O)(=O)N2CCCC2)c1 [Compound 5.5, 3-pyrrolidin-1-ylsulfonyl-4-(8,8,8-trifluorooctylamino) benzoic acid]	39%	39%	2%	–	–
O=C(O)c1ccc(NCCCCCCCC(F)(F)F)c(S(=O)(=O)NC2CCCCC2)c1 [Compound 3.22, 3-(cyclohexylsulfamoyl)-4-(8,8,8-trifluorooctylamino) benzoic acid]	54%	54%	4%	–	–
COCCCCNc1ccc(C(=O)O)cc1S(=O)(=O)N(C)C [Compound 3.19, 3-(dimethylsulfamoyl)-4-(4-methoxybutylamino)benzoic acid]	Inactive	Inactive	6%	–	–
O=C(O)c1ccc(NCCCCCCCC(F)(F)F)c(S(=O)(=O)N2CCOCC2)c1 [Compound 14.3, 3-morpholinosulfonyl-4-((8,8,8-trifluorooctyl)amino)benzoic acid]	7.1%	–	–	–	–
O=C(O)c1ccc(NCCCCCCCC(F)(F)F)c(S(=O)(=O)N2CCC(F)(F)CC2)c1 [Compound 14.4, 3-((4,4-difluoropiperidin-1-yl)sulfonyl)-4-((8,8,8-trifluorooctyl)amino)benzoic acid]	48.0%	–	–	–	–
